# Test results reported in ChEMBL document CHEMBL1201862, “PubChem BioAssay data set” (2004).
# Calls of active or inactive are those of the source.
# Columns and labels:
# [1] = biological target: T1, Runt-related transcription factor 1/Core-binding factor subunit beta (Homo sapiens, UniProt Q01196+Q13951); assay: inhibitors of RUNX1 Runt–CBFb-SMMHC binding, primary screen, biochemical, FRET, Cerulean-Runt, Venus-CBFb-SMMHC, uHTS (AID 1434); type: protein assay;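 also: partner is the CBFb-SMMHC leukemia fusion protein rather than wild-type CBFb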
# [2] = biological target: T1, Runt-related transcription factor 1/Core-binding factor subunit beta; assay: inhibitors of RUNX1 Runt–CBFb-SMMHC binding, biochemical, TR-FRET (AID 1438); type: protein assay
# Beta-lactamase [3] = biological target: Beta-lactamase (Pseudomonas aeruginosa, UniProt Q79MP6);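 also: biochemical dose-response test of metallo-beta-lactamase enzyme inhibition, read out by epi-absorbance; purified recombinant IMP-1 metallo-beta-lactamase with nitrocefin as substrate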
# HeLa = assay: HeLa cell cytotoxicity, dose response, cytotoxicity control, 24 h, cherry-picked samples (AID 504726); type: functional, cell-based; settings: Homo sapiens;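 also: potency for cytotoxicity as loss of luminescence signal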
# Troponin, cardiac muscle = Troponin, cardiac muscle (Homo sapiens, UniProt P19429+P45379+P63316); assay: Fluorescence-based biochemical high throughput dose response assay for activators of the calcium sensitivity of cardiac Regulated Thin Filaments (RTF). [Related pubchem assays (depositor defined):AID493008, AID493018, AID504382, AID504383]; type: protein-complex assay
# ORF 73 = ORF 73 (Human herpesvirus 8, UniProt O40947); assay: inhibitors of C-LANA binding to LBS DNA, dose response, biochemical, fluorescence polarization, cherry-picked samples (AID 504725); parameters: species or system Human gammaherpesvirus 8;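 also: fluorescence polarization of a labeled DNA duplex reporting LANA DNA binding; potency is for inhibitors that block LANA binding to the DNA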
# Beta-lactamase [4] = biological target: Beta-lactamase (Salmonella choleraesuis (strain SC-B67), UniProt Q5J463)
# Hexokinase-1 = biological target: T2, Hexokinase-1 (Homo sapiens, UniProt P19367); assay: hexokinase 1 activators, dose response, selectivity assay for HKDC1 activator project, biochemical (AID 504762); type: functional
# T2 sequence (P19367 whole entry): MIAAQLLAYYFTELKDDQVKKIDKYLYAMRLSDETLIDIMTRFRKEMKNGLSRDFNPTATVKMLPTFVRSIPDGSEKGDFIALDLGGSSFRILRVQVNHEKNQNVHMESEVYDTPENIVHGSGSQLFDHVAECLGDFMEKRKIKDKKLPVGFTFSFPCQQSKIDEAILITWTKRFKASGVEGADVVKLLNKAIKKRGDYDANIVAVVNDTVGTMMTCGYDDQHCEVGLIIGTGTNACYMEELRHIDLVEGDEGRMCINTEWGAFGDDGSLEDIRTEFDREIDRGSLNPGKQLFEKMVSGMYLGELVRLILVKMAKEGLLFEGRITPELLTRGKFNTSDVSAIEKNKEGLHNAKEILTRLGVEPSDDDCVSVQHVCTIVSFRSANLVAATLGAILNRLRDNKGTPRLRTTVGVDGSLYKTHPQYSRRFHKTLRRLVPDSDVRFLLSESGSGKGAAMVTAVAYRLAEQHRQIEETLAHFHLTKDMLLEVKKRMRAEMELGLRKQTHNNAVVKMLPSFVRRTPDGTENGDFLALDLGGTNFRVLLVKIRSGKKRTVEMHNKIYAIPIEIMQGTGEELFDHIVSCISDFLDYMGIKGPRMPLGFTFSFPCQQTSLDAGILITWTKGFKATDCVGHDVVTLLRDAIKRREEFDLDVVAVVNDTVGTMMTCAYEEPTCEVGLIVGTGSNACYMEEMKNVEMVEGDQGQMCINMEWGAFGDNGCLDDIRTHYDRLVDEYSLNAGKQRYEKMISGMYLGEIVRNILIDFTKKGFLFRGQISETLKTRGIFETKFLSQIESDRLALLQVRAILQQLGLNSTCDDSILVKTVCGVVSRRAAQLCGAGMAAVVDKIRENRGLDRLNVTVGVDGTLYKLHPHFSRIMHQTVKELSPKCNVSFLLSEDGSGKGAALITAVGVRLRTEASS
# [5] = biological target: T3, Voltage-gated N-type calcium channel alpha-1B subunit/Amyloid beta A4 precursor protein-binding family A member 1 (Homo sapiens, UniProt Q00975+Q02410); type: protein assay
# [6] = biological target: Induced myeloid leukemia cell differentiation protein Mcl-1 (Homo sapiens, UniProt Q07820); type: functional
# Hexokinase HKDC1 = biological target: T4, Hexokinase HKDC1 (Homo sapiens, UniProt Q2TB90); assay: HKDC1 hexokinase activators, dose response, biochemical, W721R variant (AID 504730); type: functional
# T4 sequence (Q2TB90 whole entry): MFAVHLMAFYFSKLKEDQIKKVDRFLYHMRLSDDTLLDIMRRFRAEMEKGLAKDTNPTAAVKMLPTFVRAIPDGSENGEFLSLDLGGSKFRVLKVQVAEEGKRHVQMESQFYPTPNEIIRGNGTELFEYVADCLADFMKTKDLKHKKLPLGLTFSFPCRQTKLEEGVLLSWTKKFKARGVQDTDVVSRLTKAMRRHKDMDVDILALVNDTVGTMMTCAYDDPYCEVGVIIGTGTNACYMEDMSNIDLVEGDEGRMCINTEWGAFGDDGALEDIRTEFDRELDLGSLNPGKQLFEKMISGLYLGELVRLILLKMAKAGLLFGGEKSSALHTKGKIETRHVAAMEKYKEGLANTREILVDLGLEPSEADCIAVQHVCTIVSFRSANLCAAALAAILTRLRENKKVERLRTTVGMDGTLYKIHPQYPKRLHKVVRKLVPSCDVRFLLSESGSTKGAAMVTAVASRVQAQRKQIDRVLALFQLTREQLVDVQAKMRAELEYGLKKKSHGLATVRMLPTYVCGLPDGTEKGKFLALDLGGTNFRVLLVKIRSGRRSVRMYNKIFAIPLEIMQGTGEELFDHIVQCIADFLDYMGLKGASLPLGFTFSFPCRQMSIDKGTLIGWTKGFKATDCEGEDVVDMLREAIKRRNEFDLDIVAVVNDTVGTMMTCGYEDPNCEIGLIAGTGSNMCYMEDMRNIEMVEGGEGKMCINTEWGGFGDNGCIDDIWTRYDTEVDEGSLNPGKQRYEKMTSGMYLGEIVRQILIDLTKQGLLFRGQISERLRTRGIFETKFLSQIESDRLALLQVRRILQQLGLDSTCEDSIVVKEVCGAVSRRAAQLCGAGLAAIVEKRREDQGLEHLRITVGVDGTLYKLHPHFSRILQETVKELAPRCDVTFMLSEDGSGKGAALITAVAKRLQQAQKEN
# [7] = biological target: T3, Voltage-gated N-type calcium channel alpha-1B subunit/Amyloid beta A4 precursor protein-binding family A member 1; type: protein assay; remark: listed apart in the source
# Mu-type opioid receptor = Mu-type opioid receptor (Homo sapiens, UniProt P35372); assay: SAR Analysis of Antagonists of the MOR Receptor using an Image-Based Assay - Set 3. [Related pubchem assays (depositor defined):AID1777, AID1785, AID1786, AID1966, AID2133, AID2136, AID2284, AID2285, AID2420]; type: functional
# [8] = biological target: T5, Kappa-type opioid receptor (Homo sapiens, UniProt P41145); assay: SAR analysis of small molecule antagonists of the kappa opioid receptor via a luminescent beta-arrestin assay - Set 3. [Related pubchem assays (depositor defined):AID1777, AID1778, AID1785, AID1786, AID1966, AID2133, AID2136, AID2285, AID2495]; type: functional
# [9] = biological target: Delta-type opioid receptor (Homo sapiens, UniProt P41143); assay: SAR Analysis of Antagonists of the DOR Receptor using an Image-Based Assay - Set 3. [Related pubchem assays (depositor defined):AID1777, AID1785]; type: functional;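 also: U2OS cells expressing DOR1 and beta-arrestin GFP stimulated with 100 nM SNC80; imaging of GFP-tagged beta-arrestin moving into spots after receptor activation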
# [10] = biological target: T5, Kappa-type opioid receptor; assay: SAR analysis of Antagonists of the Kappa Opioid Receptor (KOR) using an Image-Based Assay - Set 3. [Related pubchem assays (depositor defined):AID1777, AID1785]; type: functional
# [11] = biological target: T6, Replicative DNA helicase DnaB (Mycobacterium tuberculosis, UniProt P9WMR3); assay: DnaB intein splicing inhibitors, dose response, biochemical, cell-free fluorescence (AID 449749); type: functional
# T6 sequence (P9WMR3 whole entry): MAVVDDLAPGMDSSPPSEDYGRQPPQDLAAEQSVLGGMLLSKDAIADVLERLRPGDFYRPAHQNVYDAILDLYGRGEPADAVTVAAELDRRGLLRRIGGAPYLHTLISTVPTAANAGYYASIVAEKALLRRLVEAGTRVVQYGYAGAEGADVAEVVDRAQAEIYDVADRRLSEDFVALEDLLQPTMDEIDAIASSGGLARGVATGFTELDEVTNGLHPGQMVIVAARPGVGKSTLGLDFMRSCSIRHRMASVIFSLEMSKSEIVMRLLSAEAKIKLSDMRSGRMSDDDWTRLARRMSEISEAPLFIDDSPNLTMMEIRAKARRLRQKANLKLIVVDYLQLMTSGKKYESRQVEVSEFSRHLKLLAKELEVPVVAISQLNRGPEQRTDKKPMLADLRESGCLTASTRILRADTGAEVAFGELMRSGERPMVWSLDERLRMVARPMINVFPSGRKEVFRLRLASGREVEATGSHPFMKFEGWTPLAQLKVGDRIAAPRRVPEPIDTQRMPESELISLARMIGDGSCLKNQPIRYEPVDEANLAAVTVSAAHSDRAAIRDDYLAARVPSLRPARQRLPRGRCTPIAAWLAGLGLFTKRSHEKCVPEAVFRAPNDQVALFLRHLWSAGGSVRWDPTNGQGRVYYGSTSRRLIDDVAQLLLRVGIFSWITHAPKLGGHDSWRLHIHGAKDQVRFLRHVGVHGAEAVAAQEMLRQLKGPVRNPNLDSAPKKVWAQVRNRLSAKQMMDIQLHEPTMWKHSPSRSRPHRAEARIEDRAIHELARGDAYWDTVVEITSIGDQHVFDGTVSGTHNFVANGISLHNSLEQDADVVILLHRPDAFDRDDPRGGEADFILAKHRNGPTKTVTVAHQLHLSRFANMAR
# [12] = biological target: Sphingosine 1-phosphate receptor 1 (Homo sapiens, UniProt P21453); type: functional;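 also: Tango beta-arrestin reporter U2OS cells stimulated with S1P near its EC80; inhibitor potency meaning antagonism of receptor activation by the natural agonist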
# [13] = biological target: T7, Sphingosine 1-phosphate receptor 4 (Homo sapiens, UniProt O95977); assay: Fluorescence dose response cell-based high throughput screening assay for antagonists of the Sphingosine 1-Phosphate Receptor 4 (S1P4). [Related pubchem assays: 1524 (Confirmation in triplicates.), 1510 (Primary screen.)]; type: functional
# T7 sequence (O95977 whole entry): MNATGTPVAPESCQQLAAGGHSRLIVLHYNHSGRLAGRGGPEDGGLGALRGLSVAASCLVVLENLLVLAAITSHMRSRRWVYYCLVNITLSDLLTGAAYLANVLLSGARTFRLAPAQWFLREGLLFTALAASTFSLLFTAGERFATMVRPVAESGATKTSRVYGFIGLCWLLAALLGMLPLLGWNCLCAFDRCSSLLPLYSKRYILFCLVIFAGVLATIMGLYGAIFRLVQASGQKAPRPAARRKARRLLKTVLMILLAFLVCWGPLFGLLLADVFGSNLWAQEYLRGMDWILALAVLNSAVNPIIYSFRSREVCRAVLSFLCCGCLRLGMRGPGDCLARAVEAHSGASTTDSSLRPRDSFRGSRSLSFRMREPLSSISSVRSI
# [14] = Intein inhibitors as potential Tuberculosis drugs, a cytotoxicity screen. [Related pubchem assays (depositor defined):AID2221, AID2223, AID434968, AID435010, AID449749, AID449750, AID489010]; type: functional
# Protein RecA = biological target: T8, Protein RecA (Mycobacterium tuberculosis, UniProt P9WHJ3); assay: Fluorescence Cell-Free Homogeneous Dose Retest to Identify Inhibitors of RecA-Intein Splicing Activity. [Related pubchem assays (depositor defined):AID2097, AID2223, AID489010, AID492950]; type: functional
# T8 sequence (P9WHJ3 whole entry): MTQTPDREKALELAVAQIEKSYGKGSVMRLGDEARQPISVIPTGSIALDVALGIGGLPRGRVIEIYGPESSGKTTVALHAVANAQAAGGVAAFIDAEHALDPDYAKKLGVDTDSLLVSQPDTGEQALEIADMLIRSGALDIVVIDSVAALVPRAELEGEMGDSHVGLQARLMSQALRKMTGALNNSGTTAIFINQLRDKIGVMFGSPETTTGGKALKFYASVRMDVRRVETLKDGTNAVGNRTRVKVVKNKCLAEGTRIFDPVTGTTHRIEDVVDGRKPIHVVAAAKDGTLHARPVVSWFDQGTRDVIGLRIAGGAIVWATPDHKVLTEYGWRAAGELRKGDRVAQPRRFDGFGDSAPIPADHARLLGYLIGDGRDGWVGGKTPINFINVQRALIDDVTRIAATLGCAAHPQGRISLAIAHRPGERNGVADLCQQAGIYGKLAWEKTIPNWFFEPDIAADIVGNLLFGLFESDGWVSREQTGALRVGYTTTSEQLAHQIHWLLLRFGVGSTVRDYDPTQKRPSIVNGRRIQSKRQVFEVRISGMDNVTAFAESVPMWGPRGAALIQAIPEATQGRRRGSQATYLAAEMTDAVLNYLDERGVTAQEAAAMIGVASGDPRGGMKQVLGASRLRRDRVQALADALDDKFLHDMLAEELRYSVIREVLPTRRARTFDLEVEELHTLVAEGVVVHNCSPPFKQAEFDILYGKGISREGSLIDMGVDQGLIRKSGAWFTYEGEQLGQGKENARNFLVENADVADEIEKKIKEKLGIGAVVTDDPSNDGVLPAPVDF
# INS1 = assay: beta cell apoptosis inhibitors, cytokine rescue, dose response, luminescence, retest (AID 449756); type: functional, cell-based; settings: Rattus norvegicus;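 also: cell death triggered by IL-1 beta plus TNF-alpha plus IFN-gamma mixture; protective hits raise ATP signal compared with cytokine alone wells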
# Vero = assay: host cell cytotoxicity of antiviral hits, dose response, cytotoxicity control for West Nile virus antiviral project, secondary assay (AID 1650); type: functional; settings: Chlorocebus sabaeus
compound,measurement,setting,value
COc1cccc(-c2nc(-c3ccc4c(c3)-c3ccccc3S4(=O)=O)c(-c3ccccc3)[nH]2)c1OC,IC50,[1],33.6 µM (active)
same,IC50,[2],> 100 µM (inactive)
O=[N+]([O-])c1ccc(N2CCCCCC2)c2nonc12,IC50,Beta-lactamase [3],> 59.6 µM (inactive)
same,AC50,HeLa,69.4 µM (active)
same,EC50,"Troponin, cardiac muscle",413 nM (active)
same,AC50,ORF 73,54.6 µM (active)
same,IC50,Beta-lactamase [4],22.4 µM (inactive)
CC(=O)Nc1ccc(C2=NN=C(Nc3ccc(S(=O)(=O)N4CCOCC4)cc3)SC2)cc1,EC50,Hexokinase-1,7.65 µM (active)
same,IC50,[5],> 50 µM (inactive)
same,IC50,[6],1.61 µM (active)
same,EC50,Hexokinase HKDC1,7.92 µM (active)
same,IC50,[7],13.8 µM (active)
CCc1ccc(S(=O)(=O)NCc2ccc(C(=O)NCCN(C)[C@@H](C)c3ccccc3)cc2)cc1,IC50,Mu-type opioid receptor,> 32 µM (inactive)
same,IC50,[8],3.75 µM (active)
same,IC50,[9],> 32 µM (inactive)
same,IC50,[10],749 nM (active)
Cc1c(/C=N/Nc2nc3ccccc3[nH]2)c2ccccc2n1C,AC50,[11],3.82 µM (active)
same,IC50,[12],6.78 µM (active)
same,IC50,[13],1.76 µM (active)
same,CC50,[14],18.1 µM (active)
same,EC50,Protein RecA,1.99 µM (active)
same,AC50,INS1,4.83 µM (active)
same,CC50,Vero,39.2 µM (active)
